Assay results as given in patent US10730864B2, “RAD51 inhibitors and uses thereof” (THE REGENTS OF THE UNIVERSITY OF CALIFORNIA, priority 2015, dated 2020).
Entries after “also recorded” stand apart in the source; their conditions may differ. Where two headings read alike, the source gives them in different places.

What was measured:
[1] = system: panel of cancer cell lines; assay: XTT growth inhibition assay, panel of cancer cell lines (summary); format: cell-based, human
Experimental: (§1) Standard XTT assays with a four-day drug treatment procedure were performed to measure the dose dependent cytotoxicity of IBR analogs in cultured cells. In brief, cells were plated on 96-well dishes one day before the drug treatment, followed by drug treatment on day 2 and XTT assay on day 6 after drug addition by using a commercial cell proliferation kit (Roche Scientific) following the instructions.
(§2) Triplicate sets were measured and compiled for final data presentation.
(§3) The growth inhibition of a panel of cancer cell lines was tested against IBR120 using an XTT assay. These cell lines included human Chronic Myelogenous Leukemia cell line K562, human breast cancer cell lines MCF7, MDA-MB-231, MDA-MB-361, MDA-MB-435, MDA-MB-468, Hs578-T, and T47D, human Osteosarcoma cell line U2OS, human Glioblastoma cell line T98G, human Cervical Cancer cell line HeLa, as well as human mammary gland normal epithelial cell line MCF10A as normal control.

[2] = system: human mammary gland normal epithelial cell line MCF10A; assay: XTT growth inhibition assay, MCF10A normal control; format: cell-based; conditions: MCF-10A
Experimental: as §1, §2, §3

[3] = system: human breast cancer cell line MDA-MB-231; assay: XTT growth inhibition assay, MDA-MB-231; format: cell-based; conditions: MDA-MB-231, Mammary Gland Adenocarcinoma
Experimental: as §1, §2, §3

[4] = system: human breast cancer cell line MCF7; assay: XTT growth inhibition assay, MCF7; format: cell-based; conditions: MCF7, Mammary Gland Adenocarcinoma
Experimental: as §1, §2, §3

[5] = system: human Cervical Cancer cell line HeLa; assay: XTT growth inhibition assay, HeLa; format: cell-based; conditions: Cervix Adenocarcinoma
Experimental: as §1, §2, §3

[6] = system: human breast cancer cell line MDA-MB-361; assay: XTT growth inhibition assay, MDA-MB-361; format: cell-based; conditions: MDA-MB-361, Mammary Gland Adenocarcinoma
Experimental: as §1, §2, §3

[7] = system: triple-negative human breast cancer cell line MDA-MB-468; assay: XTT cell killing / growth inhibition assay, MDA-MB-468; format: cell-based; conditions: for IC50: Homo sapiens
Experimental: as §1, §2
To test the possibility of inhibiting triple-negative breast cancer, the newly synthesized IBR2 analogues IBR101-124 were screened of their growth inhibition abilities using an XTT assay.

[8] = system: human breast cancer cell line T47D; assay: XTT growth inhibition assay, T47D; format: cell-based; conditions: Mammary Gland Ductal Carcinoma
Experimental: as §1, §2, §3

[9] = system: human Chronic Myelogenous Leukemia cell line K562; assay: XTT growth inhibition assay, K562; format: cell-based
Experimental: as §1, §2, §3

[10] = system: human Glioblastoma cell line T98G; assay: XTT growth inhibition assay, T98G; format: cell-based; conditions: Glioblastoma Multiforme
Experimental: as §1, §2, §3

[11] = system: human breast cancer cell line MDA-MB-435; assay: XTT growth inhibition assay, MDA-MB-435; format: cell-based; conditions: MDA-MB-435, Melanoma/Mammary Gland Ductal Carcinoma
Experimental: as §1, §2, §3

[12] = system: human Osteosarcoma cell line U2OS; assay: XTT growth inhibition assay, U2OS; format: cell-based
Experimental: as §1, §2, §3

[13] = system: human breast cancer cell line Hs578-T; assay: XTT growth inhibition assay, Hs578-T; format: cell-based; conditions: Hs-578T, Mammary Gland Carcinoma
Experimental: as §1, §2, §3

RAD51 = target: T1, RAD51 (Homo sapiens, UniProt Q06609); assay: Multimer formation assay (gel filtration); format: biochemical; conditions: RAD51:IBR120 1:10 molar ratio, gel filtration profile
T1 sequence (Q06609 1-339): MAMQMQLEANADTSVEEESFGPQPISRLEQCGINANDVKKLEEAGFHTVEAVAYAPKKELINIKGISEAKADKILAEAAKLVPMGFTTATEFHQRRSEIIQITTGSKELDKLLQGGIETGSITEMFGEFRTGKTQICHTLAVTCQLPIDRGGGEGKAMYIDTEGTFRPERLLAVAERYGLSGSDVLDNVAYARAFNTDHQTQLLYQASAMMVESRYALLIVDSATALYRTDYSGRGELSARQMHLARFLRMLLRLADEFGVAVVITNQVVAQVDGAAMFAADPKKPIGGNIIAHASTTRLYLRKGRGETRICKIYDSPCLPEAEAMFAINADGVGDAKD
Experimental: A mixture of RAD51 (3.2 μg) and IBR120 (1:10 molar ratio) was incubated for 15 min at 37° C., supplemented with buffer (50 mM triethanolamine-HCl [pH7.5], 0.5 mM Mg(OAc)2, 1 mM DTT, 2 mM ATP and 100 μg/ml BSA, total volume 20 μl) and incubated for 15 min. The mixture was loaded onto a 2.4 ml Superdex 200 PC 3.2/30 column (Pharmacia) equilibrated with the same buffer as previously described (Zhu et al., 2013, EMBO Mol. Med. 5:1-13; Pierce et al., 1999, Genes Dev. 13:2633-2638). Fractions (50 μl) were collected and 0.5 μl of each fraction was blotted onto PVDF membrane. RAD51 was detected using anti-RAD51 antibody (mAb 14B4, GeneTex)
On the RAD51 core domain, a hydrophobic pocket formed between β-strand B3 and α-helix A4 of RAD51 is critical for RAD51 multimerization (Pellegrini et al., 2002, Nature 420:287-293). It was hypothesized that IBR compounds should be able to inhibit RAD51 multimerization. In order to test this hypothesis, the gel filtration profile of RAD51 multimerization in the presence of IBR120 or vehicle (DMSO) alone were compared.

[14] = system: HR repair in HeLa-DR-GFP cells; assay: HR assay (I-SceI inducible gene conversion, DR-GFP); format: cell-based, human; conditions: 10 or 20 μM, 24 hours, GFP positive cells by flow cytometry
Experimental: HR frequency was measured by two-colour fluorescence flow cytometric analysis using HeLa-DR-GFP cells. Fifty thousand events were analyzed for each experiment. Cells were treated with DMSO (mock), 10 or 20 μM of IBR2 or IBR120 as indicated for 24 hours after transient transfection with I-SceI expression vector pCABSce for 24 hours. HR frequencies were indicated by GFP positive cell percentages. […] DMSO. […] DMSO. […] DMSO. […] DMSO. […] GFP positive cell percentages by indicated treatments obtained from three independent experiments are summarized as means±SD.
Using previously described methods (Zhu et al., 2013, EMBO Mol. Med. 5:1-13; Pierce et al., 1999, Genes Dev. 13:2633-2638), HeLa cells stably expressing DR-GFP were transfected with the I-Sce expression vector pCBASce and treated with compounds or DMSO. Cells were then trypsinized and subjected to flow cytometry.
Inhibition of RAD51 function will lead to failure in HR repair. […] Upon I-SceI expression by transient transfection for 24 hours to induce DSBs, cells were treated with DMSO, 10 or 20 μM of IBR120 or IBR2 for another 24 hours and the GFP positive population resulting from successful recombination was measured by flow cytometry.

With O=S(=O)(Cc1ccccc1)N1Cc2ccccc2[C@@H]1c1c[nH]c2ccccc12 [IBR120, (R)-3-(2-(benzylsulfonyl)isoindolin-1-yl)-1H-indole] the IC50 ([1]; Homo sapiens, XTT assay, read-out: IC50 values in most tested cancer cell lines) was 3 to 5 µM, the “difference between the IC50 values in normal and cancer cells” value ([1]; MCF10A versus cancer cell lines) was “approximately 10 fold” and the IC50 [2] was > 30 µM. For the same compound, the IC50 [3] was 3.5 ± 0.4 µM, the IC50 [4] was 3.1 ± 0.2 µM and the IC50 [5] was 3.6 ± 0.6 µM. It also gave an IC50 [6] of 4.5 ± 0.7 µM, an IC50 ([7]; 96 h, MDA-MB-468, XTT assay, four-day drug treatment, read-out: IC50) of 3.1 µM and an IC50 ([7]; MDA-MB-468, growth inhibition, raw dataset for SAR analysis, read-out: pIC50 (converted)) of 3.24 µM. The IC50 ([7]; MDA-MB-468, Mammary Gland Adenocarcinoma (Table 3, with spread), read-out: IC50) was 3.1 ± 0.4 µM, the “IC50 compared with that of the parental compound IBR2 (in words)” value ([7]; MDA-MB-468) was “significantly lower” and the IC50 [8] was 6.3 ± 1.5 µM. The IC50 [9] was 3.6 ± 0.7 µM, the IC50 [10] was 9.5 ± 0.9 µM and the IC50 [11] was 4 ± 0.7 µM. The IC50 [12] was 4.7 ± 0.5 µM, the IC50 [13] was 4.9 ± 1 µM and the “RAD51 multimerization (in words)” value (RAD51) was “capable of disrupting RAD51 multimerization; also recorded: can inhibit RAD51 multimerization; also recorded: can disrupt RAD51 multimer formation in vitro; also recorded: inhibits RAD51 multimerization”. The “HR frequency / HR repair (in words)” value [14] was “impairing homologous recombination repair; also recorded: significantly reduced; also recorded: greater depression of HR repair activity; also recorded: inhibit HR repair in cells; also recorded: dose dependently inhibits HR repair”.
